US6703373B1, “Indolopyrrolocarbazole derivatives and antitumor agents” (Banyu Pharmaceutical Co., Ltd., priority 2002, dated 2004)

Key:
Human breast cancer MX-1 = assay: Antitumor effect on human breast cancer (MX-1) solid tumor implanted in mice; format: in vivo, mouse; settings: total dose to inhibit tumor growth by 75%; s.c. implanted tumor in mice, tail vein injection, 5/w×2 or 2/w×2, measured 28 after start
Protocol: (§1) Antitumor Effect on Human Gastric Cancer (MKN-45), Human Breast Cancer (MX-1) and Human Colon Cancer (LS180)
(§2) A MKN-45, MX-1 or LS180 solid tumor previously subcutaneously implanted in a nude mouse and grown was thinly cut, and its cubes with each side 3 mm were subcutaneously implanted in test mice. After the implantation, starting from the time when the tumor grew into 0.3 cm^3 or more, various dosages of a test compound were injected once a day for 5 consecutive days into the tail veins of the mice. The same injections were then made for further 5 days after 2 days of interval (treatment schedule: 5/w×2) or once every 3-4 days, four times in total (treatment schedule: 2/w×2). 28 after the start of the treatment, the length (L) and the breadth (W) of each of the tumors were measured, and its volume (V) was calculated (V=½×L×W^2).

[1] = tested on: human colon cancer cells (DLD-1); assay: Growth inhibition activity on human colon cancer cells (DLD-1); format: cell-based; settings: DLD-1 cells, 72 h with compound, Sulforhodamine B, absorbance 560 nm; read-out: 50% inhibition concentration (IC50, nM) DLD-1
Protocol: (§3) Growth Inhibition Activity on Human Gastric Cancer Cells, Human Colon Cancer Cells and Human Lung Cancer Cells
(§4) 100 μl of a medium containing a test compound was added, and culture was continued at 37° C. for further 72 hours under 5% CO2. After completion of the culture, 50 μl of 50% trichloroacetic acid was added to the cultured medium, and the mixtures were held at 4° C. for 60 minutes to fix the cells. The cultured medium containing trichloroacetic acid was removed, and the wells were washed with tap water and dried. 50 μl of 0.4% Sulforhodamine B solution was added, and the mixtures were held at room temperature for 30 minutes to dye the cells. The dyeing solutions were removed, and the remaining dyeing solutions were washed away with 1% acetic acid. After complete removal of the acetic acid solution and drying, 200 μl of […] Tris solution was added and the mixtures were mixed well at room temperature for 1 hour or more to extract the dye. Absorbance of each well at 560 nm was measured, and the inhibition proportion in comparison with the group of no addition of any drug was calculated.

[2] = tested on: human gastric cancer cells (MKN-45); assay: Growth inhibition activity on human gastric cancer cells (MKN-45); format: cell-based; settings: MKN-45 cells, 72 h with compound, Sulforhodamine B, absorbance 560 nm; read-out: 50% inhibition concentration (IC50, nM) MKN-45
Protocol: as §3, §4

[3] = tested on: Human gastric cancer MKN-45; assay: Antitumor effect on human gastric cancer (MKN-45) solid tumor implanted in mice; format: in vivo, mouse; settings: total dose to inhibit tumor growth by 75%; s.c. implanted tumor in mice, tail vein injection, 5/w×2 or 2/w×2, measured 28 after start
Protocol: as §1, §2

Human colon cancer LS180 = assay: Antitumor effect on human colon cancer (LS180) solid tumor implanted in mice; format: in vivo, mouse; settings: total dose to inhibit tumor growth by 75%; s.c. implanted tumor in mice, tail vein injection, 5/w×2 or 2/w×2, measured 28 after start
Protocol: as §1, §2

[4] = tested on: human lung cancer cells (PC-13); assay: Growth inhibition activity on human lung cancer cells (PC-13); format: cell-based; settings: PC-13 cells, 72 h with compound, Sulforhodamine B, absorbance 560 nm; read-out: 50% inhibition concentration (IC50, nM) PC-13
Protocol: as §3, §4

[5] = tested on: mouse leukemia cells (P388); assay: Growth inhibition activity on mouse leukemia cells (P388); format: cell-based; settings: 24 h with compound, Thiazoyl Blue, absorbance 550 nm, read-out: 50% inhibition concentration (IC50, nM) P-388
Protocol: Growth Inhibition Activity on Mouse Leukemia Cells
10 μl of a medium containing a test compound was added, and culture was continued at 37° C. for further 24 hours under 5% CO2. 10 μl of 0.5% Thiazoyl Blue was added to the cultured medium, and incubation was made at 37° C. for 2 hours under 5% CO2 to carry out enzymatic reaction. 20% sodium dodecyl sulfate (SDS) was added to discontinue the reaction, and incubation was carried out at 37° C. for further 4 hours to dissolve the resulting dye, and absorbance at 550 nm was measured and compared with the control group.

| SMILES | GID75 (mg/m^2 total) Human breast cancer MX-1 (Human breast cancer MX-1) | IC50 [1] | IC50 [2] | GID75 (mg/m^2 total) Human gastric cancer MKN-45 [3] | GID75 (mg/m^2 total) Human colic cancer LS180 (Human colon cancer LS180) | IC50 [4] | IC50 [5] |
| --- | --- | --- | --- | --- | --- | --- | --- |
| O=C1c2c(c3c4ccc(O)cc4n([C@@H]4O[C@H](CO)[C@@H](O)[C@H](O)[C@H]4O)c3c3[nH]c4cc(O)ccc4c23)C(=O)N1NCc1ccncc1 [Example 24] | 27 mg/m^2 | 3.3 nM | 0.71 nM | 12 mg/m^2 | 114 mg/m^2 | 0.27 nM | 0.48 nM |
| O=C1c2c(c3c4ccc(O)cc4n([C@@H]4O[C@H](CO)[C@@H](O)[C@H](O)[C@H]4O)c3c3[nH]c4cc(O)ccc4c23)C(=O)N1NCc1cscc1CO [Example 20] | <30 mg/m^2 | 1 nM | 0.92 nM | – | – | 0.67 nM | 0.87 nM |
| O=C1c2c(c3c4ccc(O)cc4n([C@@H]4O[C@H](CO)[C@@H](O)[C@H](O)[C@H]4O)c3c3[nH]c4cc(O)ccc4c23)C(=O)N1NCc1ccncc1CO [Example 3] | <12 mg/m^2 | 0.91 nM | 0.35 nM | <30 mg/m^2 | 48 mg/m^2 | 0.22 nM | 0.28 nM |
| O=C1c2c(c3c4ccc(O)cc4n([C@@H]4O[C@H](CO)[C@@H](O)[C@H](O)[C@H]4O)c3c3[nH]c4cc(O)ccc4c23)C(=O)N1NCc1sc(CO)cc1CO [Example 16] | <36 mg/m^2 | 4 nM | 1.3 nM | – | – | 0.56 nM | 0.4 nM |
| O=C1c2c(c3c4cccc(O)c4n(C4OC(CO)C(O)C(O)C4O)c3c3[nH]c4c(O)cccc4c23)C(=O)N1NCc1cccc(O)c1 (stereo not drawn) [Control compound 2, reference compound] | – | 76 nM | 12 nM | – | – | 48 nM | 6.5 nM |
| O=C1c2c(c3c4ccc(O)cc4n([C@@H]4O[C@H](CO)[C@@H](O)[C@H](O)[C@H]4O)c3c3[nH]c4cc(O)ccc4c23)C(=O)N1NCc1ccc(CO)o1 [Example 22] | – | 1 nM | 1.8 nM | – | – | 0.58 nM | 0.63 nM |
| O=C1c2c(c3c4ccc(O)cc4n(C4OC(CO)C(O)C(O)C4O)c3c3[nH]c4cc(O)ccc4c23)C(=O)N1NCc1cccc(O)c1 (stereo not drawn) [Control compound, reference compound] | 97 mg/m^2 | – | – | 370 mg/m^2 | 1900 mg/m^2 | – | – |
| O=C1c2c(c3c4ccc(O)cc4n([C@@H]4O[C@H](CO)[C@@H](O)[C@H](O)[C@H]4O)c3c3[nH]c4cc(O)ccc4c23)C(=O)N1NCc1cccc(CO)n1 [Example 15] | <6 mg/m^2 | 4.3 nM | 2.1 nM | <90 mg/m^2 | 400 mg/m^2 | 0.62 nM | 0.5 nM |
| O=C1c2c(c3c4ccc(O)cc4n([C@@H]4O[C@H](CO)[C@@H](O)[C@H](O)[C@H]4O)c3c3[nH]c4cc(O)ccc4c23)C(=O)N1NCc1sccc1CO [Example 19] | <30 mg/m^2 | 1.3 nM | 0.92 nM | – | – | 0.5 nM | 0.19 nM |
| O=C1c2c(c3c4ccc(O)cc4n([C@@H]4O[C@H](CO)[C@@H](O)[C@H](O)[C@H]4O)c3c3[nH]c4cc(O)ccc4c23)C(=O)N1NCc1ccsc1CO [Example 18] | 16 mg/m^2 | 4.6 nM | 0.66 nM | – | – | 0.3 nM | 0.43 nM |
| O=C1c2c(c3c4ccc(O)cc4n([C@@H]4O[C@H](CO)[C@@H](O)[C@H](O)[C@H]4O)c3c3[nH]c4cc(O)ccc4c23)C(=O)N1NCc1csc(CO)c1 [Example 23] | 19 mg/m^2 | 8.9 nM | 1.5 nM | – | – | 2.3 nM | 0.48 nM |
